From patent US20260263550A1, “METHODS AND COMPOSITIONS FOR TREATING, PREVENTING, INHIBITING, AMELIORATING OR DELAYING THE ONSET OF OPHTHALMIC CONDITIONS” (Stealth BioTherapeutics Inc., priority 2021, published 2026)

Experiments:
[1] = Uptake in plasma and compartments of the eye in a rabbit model (subcutaneous or topical ocular dosing); type: in vivo, Dutch Belted Rabbits
Method: 3 mg/mL elamipretide or compound of Formula IIa in saline was dosed subcutaneously at 1.5 mg/kg. A 3 mg/mL elamipretide or compound of Formula IIa formulation was prepared by dissolving 81 mg elamipretide in a total volume of 27 mL of sterile saline and mixing well. • (ii) Groups 2 & 4: Topical Ocular Formulation for administration of elamipretide or compound of Formula IIa
For each preparation (i.e., elamipretide or compound of Formula IIa, sodium chloride (105 mg) was dissolved in 16 mL of water for injection with mixing. With mixing, 82.8 mg of sodium phosphate monobasic, monohydrate was then added. With mixing, 0.400 mL of a 5 mg/mL benzalkonium chloride solution in water (to be prepared by diluting 0.100 mL of a 50% benzalkonium chloride solution in water to 10 mL with water for injection) was then added. Two hundred (200) mg of elamipretide or compound of Formula IIa was then added with mixing and the formulation pH was adjusted to 5.8 (+/−0.1) with 1 M sodium hydroxide in water solution. The final volume of the formulation was then be brought to 20 mL using water for injection. Each formulation (elamipretide or compound of Formula IIa) was used for topical ocular administration at a dose of 50 μL/eye OU.
A total of 48 male Dutch Belted Rabbits were used in the study. Each animal was approximately 2 kg.
For subcutaneous administration, rabbits were dosed via a single subcutaneous injection of 1.5 mg/kg and at the scruff of the neck between the shoulder blades using a syringe with an attached 27G×½ inch needle (or similar). The site of injection was checked to ensure no leakage of dose immediately following administration.
For topical administration, a calibrated Gilson positive displacement pipette was used to administer 50 μL of formulation onto the globe the eye while the lower eyelid was pulled away from the globe. Administration was twice daily (i.e., BID). Doses were administered to both eyes, every 8 to 12 hours for 11 total doses.
Terminal blood samples (approximately 6 mL) were collected from two animals/group/timepoint via the central ear artery at approximately 0.5, 1, 2, 4, 8, and 24 hours postdose. Blood samples were collected into tubes containing K2EDTA as the anticoagulant and inverted several times to ensure adequate mixing of blood and anticoagulant and placed on ice. Within 30 min of collection, samples were centrifuged to harvest plasma and stored at −80° C. until analyzed.
Following blood collection, designated animals were euthanized by barbiturate overdose. Following euthanasia, both eyes of each rabbit were harvested and dissected for collection of ocular tissue and fluid. Optic nerve and retina were collected from Group 1 and 3 animals, and aqueous humor, retina, conjunctiva, cornea, sclera, and optic nerve were collected from Group 2 and 4 animals. Following dissection, all fluids and tissues were placed in pre-tared tubes, weight collected, and then flash frozen on dry ice and placed in a freezer at −80° C. or lower until analyzed. Concentrations of test article in plasma in the ocular tissues (ng/g tissue) and fluids (ng/mL fluid) were determined utilizing a method previously developed by the CRO.

[2] = system: iPSC-derived RPE cells from AMD donors; assay: Cell viability assay on nitrite-modified ECM (Real Time-Glo MT Cell Viability Assay); type: cell-based, human; settings: 10, 100, 1000 nM; 24 hours; versus vehicle-treated cells; FIG. 8J, *p<0.05
Method: (§1) General. iPSC-derived RPE were generated from AMD patients (2 atrophic; 1 exudative) and patients with no history of AMD (n=3). To test the therapeutic efficacy of elamipretide and compound of Formula IIa, cell viability was analyzed on nitrite-modified extracellular matrix (ECM), a typical modification of aged Bruch's membrane, for 24 hrs. DNA microarrays were used to elucidate gene expression in AMD-derived RPE cultured on nitrite-modified ECM.
Preparation of RPE cell-derived ECM and nitrite-modified ECM RPE cell-derived ECM plates were prepared from ARPE-19 cells as described in Wang et al., Curr Eye Res. 30:691-702 (2005); Fields et al. (2017); and Moreira et al., Transl Vis Sci Technol. 4:10 (2015). ECM on 96-well plates were used to create two experimental plating surfaces (nontreated ECM and nitrite-modified ECM). Nitrite-modified ECM was prepared by adding 100 mM sodium nitrite to ECM followed by incubation at 37° C. for 7 days. Plates were then washed with DPBS and incubated with DPBS for 4 hours to completely remove the nitrite. […]
Cell viability was measured by Real Time-Glo MT Cell Viability Assay (Promega, Madison, WI, www.promega.com) according to the manufacturer's protocol. […] Luminescent signals were acquired using a BioTek FLx800 plate reader (BioTek).

[3] = system: iPSC-derived RPE cells from AMD donors; assay: Microarray analysis of gene expression on in vitro Bruch's membrane model; type: cell-based, human; settings: AMD-derived RPE on nitrite-modified ECM, 10, 100, 1000 nM, 24 hours
Method: as §1
Microarray analysis. iPSC-derived RPE cells from AMD donors (n=3; 2 atrophic with GA, 1 exudative) were treated with drug (elamipretide or compound of Formula IIa) as described below and cultured on an in vitro Bruch's membrane model for 24 hours.
• AMD donors only (n=3 individual donors) • Cells treated with elamipretide (also referred to as “309” in the figures) at 10 nM, 100 nM and 1000 nM • Cells treated with compound of Formula IIa (also referred to as “146c” in the figures) at 10 nM, 100 nM, 1000 nM
Microarray studies using Affymetrix GeneChip Human Clariom™ S Assay were performed as described in Gong et al. (2020).

[4] = system: iPSC-derived RPE cells from AMD donors; assay: Measurement of mitochondrial function (Seahorse XF Cell Mito Stress Test); type: cell-based, human; settings: 10, 100, 1000 nM, treatment began 24 hours prior to assay, FIGS. 8AA-8AL
Method: Measurement of mitochondrial function. Analysis of mitochondrial function was performed on live iPSC-derived RPE cells from AMD donors (n=3; 2 atrophic with GA, 1 exudative) treated with drug (elamipretide, compound of Formula IIa, or vehicle) as described below and iPSC-derived RPE cells from non-diseased controls (n=2) using the XFe96 Extracellular Flux Analyzer (Agilent Technologies, Santa Clara, California, www.agilent.com) and the Seahorse XF Cell Mito Stress Test (CMST) Kit (Agilent Technologies). iPSC-derived RPE cells were seeded onto a laminin-coated Seahorse XF plates and grown until confluent. Data were normalized by cell count. Drug treatments began 24 hours prior to assay. […]
Cells were stained with DAPI and counted by ImageJ software (National Institute of Health, Bethesda, Maryland, www.nih.gov). […] Oxygen consumption rate was detected under basal conditions followed by the sequential addition of oligomycin, carbonyl cyanide 4-(trifluoromethoxy) phenylhydrazone (FCCP), rotenone, and antimycin A. From these sequential additions, the following parameters can be derived: basal respiration, ATP production, maximal respiration, and spare respiratory capacity.

[5] = at 24 weeks of treatment; Pieramici & Ehlers, slide 15; cited from earlier work

elamipretide [reference compound]
concentration in plasma, elamipretide compared with compound of Formula IIa ([1]; SC 1.5 mg/kg single dose or topical eye drops BID, 11 doses, FIGS. 1A, 1B): roughly equivalent
concentration accumulated in the retina, compared with the other test article ([1]; regardless of mode of administration (topical or subcutaneous), FIGS. 2A, 2B): much lower
AMD-derived RPE cell viability on nitrite-modified ECM [2]: significantly enhanced
expression of complement regulatory genes including CFHR2 ([3]; FIG. 8S): increase expression
expression of complement component genes (C1R, C3, C4A) increased by nitration of ECM ([3]; FIGS. 8L-8P): reverse this trend
expression of mitochondrial-related genes, such as CYP24A1 and GLS ([3]; FIGS. 8W-8Z): altered the expression
mitochondrial function (ATP production; basal respiration; maximal respiration; spare respiratory capacity) [4]: efficacy in improving mitochondrial function
Average BCVA and LLVA in NCGA and HRD patients [5]: improved significantly
